Measured values as given in US9850283B2, “Macrocyclic inhibitors of the PD-1/PD-L1 and CD80(B7-1)/PD-L1 protein/protein interactions” (BRISTOL-MYERS SQUIBB COMPANY, priority 2013, dated 2017).
Read-outs that look alike come from different tables or passages of the source. Positions of bridges follow the written chain, without caps; N, C: chain ends. Non-standard residues stand in square brackets, D forms with d. Residues, ends and D or L forms follow the SMILES beside them. ξ: configuration not given here. Phe(3,4,5-F3) = N[C@@H](Cc1cc(F)c(F)c(F)c1)C(=O)O; Bta = N[C@@H](Cc1csc2ccccc12)C(=O)O; Hyp = O=C(O)[C@@H]1C[C@@H](O)CN1; NMeF = CN[C@@H](Cc1ccccc1)C(=O)O; dHyp = O=C(O)[C@H]1C[C@H](O)CN1; NMeNle = CCCC[C@H](NC)C(=O)O; NMeM = CN[C@@H](CCSC)C(=O)O; dPip = O=C(O)[C@H]1CCCCN1; NMeA = CN[C@@H](C)C(=O)O; Dab = NCC[C@H](N)C(=O)O; Dap = NC[C@H](N)C(=O)O; ξC = NC(CS)C(=O)O

Key:
[1] = biological target: T1, Human PD-L1/PD-1 (Homo sapiens, UniProt Q9NZQ7); experiment: HTRF PD-1-Ig/PD-L1-His binding assay (human PD-L1)
T1 construct: made in house; host or cells: HEK293T
T1 sequence (Q9NZQ7 with tags, fused parts or gaps): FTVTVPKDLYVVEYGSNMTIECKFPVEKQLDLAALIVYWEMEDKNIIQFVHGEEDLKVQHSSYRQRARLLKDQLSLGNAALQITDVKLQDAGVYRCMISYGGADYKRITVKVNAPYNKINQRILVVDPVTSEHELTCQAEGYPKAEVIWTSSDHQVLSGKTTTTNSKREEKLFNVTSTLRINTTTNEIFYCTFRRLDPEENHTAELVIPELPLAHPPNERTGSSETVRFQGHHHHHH
Method in brief: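 Ig- and His-fused extracellular PD-1/PD-L1 binding in BSA/Tween-20 dPBS. HTRF with Eu anti-Ig (1 nM final) and APC anti-His (20 nM final).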

[2] = biological target: T2, LK35.2-hPD-L1 cells / PE-labeled PD-1-Ig (Homo sapiens, UniProt Q9NZQ7); experiment: LK35.2-hPD-L1 cell binding high-content screening assay; type: cell-based; conditions: cell binding assay, cell line not given
T2 construct: expressed in transfected cells; host or cells: LK35.2 mouse B cell line
T2 sequence (Q9NZQ7 19-290): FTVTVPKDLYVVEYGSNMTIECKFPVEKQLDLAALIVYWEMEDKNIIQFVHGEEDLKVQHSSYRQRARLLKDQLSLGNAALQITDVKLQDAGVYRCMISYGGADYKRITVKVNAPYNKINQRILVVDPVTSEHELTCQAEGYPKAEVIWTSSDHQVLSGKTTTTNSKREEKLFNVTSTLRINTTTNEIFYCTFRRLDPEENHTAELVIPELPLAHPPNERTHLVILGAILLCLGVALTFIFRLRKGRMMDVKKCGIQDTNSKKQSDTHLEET
Method in brief: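 Binding of PE-conjugated human PD-1-Ig (1 nM final) to human PD-L1 stably expressed on a mouse B-cell line (LK35.2) was measured by high-content imaging after washes. Compound and labeled PD-1-Ig were co-incubated 1 h at 37 °C with cells in RPMI/10% FCS.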

[3] = biological target: CMV-specific T cells (Homo sapiens, UniProt Q9NZQ7); experiment: CMV-specific T cell function assay (IFNγ secretion, ELISA); type: cell-based
Sequence of CMV-specific T cells (Q9NZQ7 19-290): as above
Procedure: CMV-specific T Cell Function Assay. […] AIM-V medium (Life Technologies, Grand Island, N.Y.) supplemented with 10% heat-inactivated fetal bovine serum (FBS, Sigma, St Louis, Mo.) was used at a total volume of 200 µL/well in triplicate. The cells were cultured for 4 days at 37° C., 5% CO2 at which time culture supernatant was harvested for determination of secreted IFNγ by ELISA (OptEIA hIFNγ ELISA Kit, BD Biosciences, San Jose, Calif.).

[4] = value given instead of cluster, read-out: HTRF IC50 value
[5] = value given instead of cluster, read-out: CBA IC50 value
[6] = value given instead of cluster, read-out: CMV Recall EC50 value
[7] = numeric value, read-out: HTRF IC50 values
[8] = numeric value, read-out: CBA IC50 values
[9] = numeric value, read-out: CMV Recall EC50 values

IC50 [1, 4] [nM]	IC50 [2, 5] [nM]	EC50 [3, 6] [nM]	IC50 [1, 7] [nM]	IC50 [2, 8] [nM]	EC50 [3, 9] [nM]	Structure (SMILES)
7.43	1.16	2.3	–	–	–	CCCC[C@H]1C(=O)N(C)[C@@H](CCCC)C(=O)N[C@@H](CCCNC(=N)N)C(=O)N[C@H](C(=O)NCC(N)=O)CSCC(=O)N[C@@H](Cc2ccc(O)cc2)C(=O)N(C)[C@@H](C)C(=O)N[C@@H](CCN)C(=O)N2CCC[C@H]2C(=O)N[C@@H](Cc2cnc[nH]2)C(=O)N[C@@H](CCC(=O)O)C(=O)N2C[C@H](O)C[C@H]2C(=O)N[C@@H](Cc2c[nH]c3ccccc23)C(=O)N[C@@H](CO)C(=O)N[C@@H](Cc2c[nH]c3ccccc23)C(=O)N1C [Example 5025] ({CH2CO}-Y[NMeA][Dab]PHE[Hyp]WSW[NMeNle][NMeNle]RCG-NH2; thioether N-14)
5.15	2.28	14.5	–	–	–	CCCC[C@H]1C(=O)N(C)[C@@H](CCCC)C(=O)N[C@@H](CN)C(=O)N[C@H](C(=O)NCC(N)=O)CSCC(=O)N[C@@H](Cc2ccc(O)cc2)C(=O)N(C)[C@@H](C)C(=O)N[C@@H](CC(N)=O)C(=O)N2CCC[C@H]2C(=O)N[C@@H](Cc2cnc[nH]2)C(=O)N[C@@H](CCC(=O)O)C(=O)N2C[C@H](O)C[C@H]2C(=O)N[C@@H](Cc2c[nH]c3ccccc23)C(=O)N[C@@H](CO)C(=O)N[C@@H](Cc2c[nH]c3ccccc23)C(=O)N1C [Example 5062] ({CH2CO}-Y[NMeA]NPHE[Hyp]WSW[NMeNle][NMeNle][Dap]CG-NH2; thioether N-14)
10.5	1.01	14	–	–	–	CCCC[C@H]1C(=O)N(C)[C@@H](CCCC)C(=O)N[C@@H](CC(C)C)C(=O)N[C@H](C(=O)NCC(N)=O)CSCC(=O)N[C@@H](Cc2ccc(O)cc2)C(=O)N(C)[C@@H](C)C(=O)N[C@@H](CC(N)=O)C(=O)N2CCC[C@H]2C(=O)N[C@@H](CN)C(=O)N[C@@H](CCC(=O)O)C(=O)N2C[C@H](O)C[C@H]2C(=O)N[C@@H](Cc2c[nH]c3ccccc23)C(=O)N[C@@H](CO)C(=O)N[C@@H](Cc2c[nH]c3ccccc23)C(=O)N1C [Example 5071] ({CH2CO}-Y[NMeA]NP[Dap]E[Hyp]WSW[NMeNle][NMeNle]LCG-NH2; thioether N-14)
6.76	3.14	100	–	–	–	CCCC[C@H]1C(=O)N(C)[C@@H](CCCC)C(=O)N[C@@H](CCN)C(=O)N[C@H](C(=O)NCC(N)=O)CSCC(=O)N[C@@H](Cc2ccc(O)cc2)C(=O)N(C)[C@@H](C)C(=O)N[C@@H](CCN)C(=O)N2CCC[C@H]2C(=O)N[C@@H](Cc2c[nH]cn2)C(=O)N[C@@H](CCC(=O)O)C(=O)N2C[C@H](O)C[C@H]2C(=O)N[C@@H](Cc2c[nH]c3ccccc23)C(=O)N[C@@H](CO)C(=O)N[C@@H](Cc2c[nH]c3ccccc23)C(=O)N1C [Example 5093] ({CH2CO}-Y[NMeA][Dab]PHE[Hyp]WSW[NMeNle][NMeNle][Dab]CG-NH2; thioether N-14)
–	–	–	3.47	0.948	34.4	CCCC[C@H]1C(=O)N[C@@H](CCCNC(=N)N)C(=O)NC(C(=O)NCC(N)=O)CSCC(=O)N[C@@H](Cc2ccc(O)cc2)C(=O)N(C)[C@@H](C)C(=O)N[C@@H](CC(N)=O)C(=O)N2CCC[C@H]2C(=O)N[C@@H](Cc2cnc[nH]2)C(=O)N[C@@H](CC(C)C)C(=O)N2C[C@H](O)C[C@H]2C(=O)N[C@@H](Cc2c[nH]c3ccccc23)C(=O)N[C@@H](CO)C(=O)N[C@@H](Cc2c[nH]c3ccccc23)C(=O)N(C)[C@@H](CCSC)C(=O)N1C (stereo partly drawn) [Example 9026]
–	–	–	14.9	19.5	112	CCCC[C@H]1C(=O)N[C@@H](CCCNC(=N)N)C(=O)NC(C(=O)NCC(N)=O)CSCC(=O)N[C@@H](Cc2ccc(O)cc2)C(=O)N(C)[C@@H](C)C(=O)N[C@@H](CC(N)=O)C(=O)N2CCC[C@H]2C(=O)N[C@@H](Cc2cnc[nH]2)C(=O)N[C@@H](CC(C)C)C(=O)N2C[C@H](O)C[C@H]2C(=O)N[C@@H](Cc2c[nH]c3ccccc23)C(=O)N[C@@H](CO)C(=O)N[C@@H](Cc2c[nH]c3ccccc23)C(=O)N(C)[C@@H](C)C(=O)N1C (stereo partly drawn) [Example 9057]

Continued, molecule first:

Structure (SMILES)	IC50 [1, 4] [nM]	IC50 [2, 5] [nM]	EC50 [3, 6] [nM]	IC50 [1, 7] [nM]	IC50 [2, 8] [nM]	EC50 [3, 9] [nM]
CCCC[C@H]1C(=O)N2C[C@@H](O)C[C@@H]2C(=O)N[C@@H](CC(=O)O)C(=O)N[C@@H](C(C)C)C(=O)N(C)[C@@H](Cc2ccccc2)C(=O)N[C@@H](Cc2ccc(O)cc2)C(=O)N2CCCC[C@@H]2C(=O)N[C@@H](Cc2c[nH]c3ccccc23)C(=O)N[C@@H](Cc2ccc(O)cc2)C(=O)N[C@@H](CC(C)C)C(=O)N[C@H](C(=O)NCC(N)=O)CSCC(=O)N[C@@H](Cc2cc(F)c(F)c(F)c2)C(=O)N(C)[C@@H](Cc2ccccc2)C(=O)N1C [Example 3592] ({CH2CO}-[Phe(3,4,5-F3)][NMeF][NMeNle][dHyp]DV[NMeF]Y[dPip]WYLCG-NH2; thioether N-13)	4	0.158	0.62	–	–	–
CCCC[C@H]1C(=O)N(C)[C@@H](CCCC)C(=O)N[C@@H](CC(C)C)C(=O)N[C@H](C(=O)NCC(N)=O)CSCC(=O)N[C@@H](Cc2ccc(O)cc2)C(=O)N(C)[C@@H](C)C(=O)N[C@@H](CC(N)=O)C(=O)N2CCC[C@H]2C(=O)N[C@@H](CN)C(=O)N[C@@H](CCC(=O)O)C(=O)N2C[C@H](O)C[C@H]2C(=O)N[C@@H](Cc2c[nH]c3ccccc23)C(=O)N[C@@H](CCN)C(=O)N[C@@H](Cc2c[nH]c3ccccc23)C(=O)N1C [Example 5067] ({CH2CO}-Y[NMeA]NP[Dap]E[Hyp]W[Dab]W[NMeNle][NMeNle]LCG-NH2; thioether N-14)	5.77	1.81	3.27	–	–	–
CCCC[C@H]1C(=O)N(C)[C@@H](CCCC)C(=O)N[C@@H](CO)C(=O)N[C@H](C(=O)NCC(N)=O)CSCC(=O)N[C@@H](Cc2ccc(O)cc2)C(=O)N(C)[C@@H](C)C(=O)N[C@@H](CC(=O)O)C(=O)N2CCC[C@H]2C(=O)N[C@@H](CO)C(=O)N[C@@H](CO)C(=O)N2C[C@H](O)C[C@H]2C(=O)N[C@@H](Cc2c[nH]c3ccccc23)C(=O)N[C@@H](CO)C(=O)N[C@@H](Cc2c[nH]c3ccccc23)C(=O)N1C [Example 5117] ({CH2CO}-Y[NMeA]DPSS[Hyp]WSW[NMeNle][NMeNle]SCG-NH2; thioether N-14)	5.33	6.75	103	–	–	–
CCCC[C@H]1C(=O)N([13CH3])[C@@H](CCCC)C(=O)N[C@@H](CCCNC(=N)N)C(=O)N[C@H](C(=O)NCC(N)=O)CSCC(=O)N[C@@H](Cc2ccc(O)cc2)C(=O)N([13CH3])[C@@H](C)C(=O)N[C@@H](CC(N)=O)C(=O)N2CCC[C@H]2C(=O)N[C@@H](Cc2cnc[nH]2)C(=O)N[C@@H](CC(C)C)C(=O)N2CCC[C@H]2C(=O)N[C@@H](Cc2c[nH]c3ccccc23)C(=O)N[C@@H](CO)C(=O)N[C@@H](Cc2csc3ccccc23)C(=O)N1[13CH3] [Example 6035]	4.97	0.763	5.75	–	–	–
CCCC[C@H]1C(=O)N(C)[C@@H](CCCC)C(=O)N[C@@H](CCCNC(=N)N)C(=O)NC(C(=O)N[C@@H](CO)C(N)=O)CSCC(=O)N[C@@H](Cc2ccc(O)cc2)C(=O)N(C)[C@@H](C)C(=O)N[C@@H](CC(N)=O)C(=O)N2CCC[C@H]2C(=O)N[C@@H](Cc2cnc[nH]2)C(=O)N[C@@H](CC(C)C)C(=O)N2CCC[C@H]2C(=O)N[C@@H](Cc2c[nH]c3ccccc23)C(=O)N[C@@H](CO)C(=O)N[C@@H](Cc2csc3ccccc23)C(=O)N1C (stereo partly drawn) [Example 9031] ({CH2CO}-Y[NMeA]NPHLPWS[Bta][NMeNle][NMeNle]R[ξC]S-NH2; thioether N-14)	–	–	–	7.15	0.643	39.4
CCCC[C@H]1C(=O)N(C)[C@@H](CCCC)C(=O)N[C@@H](CCCNC(=N)N)C(=O)NC(C(=O)NCC(N)=O)CSCC(=O)N[C@@H](Cc2ccc(O)cc2)C(=O)N(C)[C@@H](C)C(=O)N[C@@H](CC(N)=O)C(=O)N2CCC[C@H]2C(=O)N[C@@H](Cc2cnc[nH]2)C(=O)N[C@@H](CO)C(=O)N2CCC[C@H]2C(=O)N[C@@H](Cc2c[nH]c3ccccc23)C(=O)N[C@@H](CO)C(=O)N[C@@H](Cc2csc3ccccc23)C(=O)N1C (stereo partly drawn) [Example 9068] ({CH2CO}-Y[NMeA]NPHSPWS[Bta][NMeNle][NMeNle]R[ξC]G-NH2; thioether N-14)	–	–	–	0.385	2.05	249
CCCC[C@H]1C(=O)N[C@@H](CCCNC(=N)N)C(=O)NC(C(=O)NCC(N)=O)CSCC(=O)N[C@@H](Cc2ccc(O)cc2)C(=O)N(C)[C@@H](C)C(=O)N[C@@H](CC(N)=O)C(=O)N2CCC[C@H]2C(=O)N[C@@H](CN)C(=O)N[C@@H](CC(C)C)C(=O)N2C[C@H](O)C[C@H]2C(=O)N[C@@H](Cc2c[nH]c3ccccc23)C(=O)N[C@@H](CO)C(=O)N[C@@H](Cc2c[nH]c3ccccc23)C(=O)N(C)[C@@H](CCSC)C(=O)N1C (stereo partly drawn) [Example 9091] ({CH2CO}-Y[NMeA]NP[Dap]L[Hyp]WSW[NMeM][NMeNle]R[ξC]G-NH2; thioether N-14)	–	–	–	774	3.03	5.6
